Test results as given in patent publication US10542747B2, “Plant irrigation methods with 1-MCP” (Syngenta Participations AG, priority 2010, dated 2020).

Experiments:
[1] = system: 5-6 leaf tomato plants (var. Rutgers); test: Tomato epinasty test (Cerone/ethephon challenge); type: in vivo; details: average of 8 plants
[2] = cited from earlier work
[3] = system: 5-6 leaf tomato plants (var. Rutgers); test: Tomato epinasty test (Cerone/ethephon challenge); type: in vivo; details: 200 l/ha, average of 8 plants
Procedure: Bioassay test material: 5-6 leaf tomato plants (var. Rutgers), 8 reps/treatment.
The first column of table 1 provides a summary of change in angle of the 3rd leaf petiole at 24 hours after application of Cerone (ethephon). There are two sets of data, one for those challenged with Cerone at 4 hours after 1-MCP formulation application and a second set for plants challenged with Cerone at 24 hrs after 1-MCP formulation application. Data are the averages of 8 replicate plants
Procedures Used for Epinasty Test:
1-MCP formulation and rates: 1-MCP in the form of an α-cyclodextrin molecularly encapsulated powder dispersed in an aqueous MgSO4 solution
Standard foliar spray at 200 l/ha and 0.035% v/v kinetic silicon adjuvant 0, 10 and 20 g ai/ha
Application rate 500 g ai/ha at 400 l/ha application volume
Application at 4 and 24 HAA of Invinsa
Angle of 3rd petiole to plants stem measured prior to 1-MCP application and again at 24 HAT Final data expressed as average change in 3rd petiole angle

[4] = system: Wheat plants, variety ARINA; test: Effect of 1-MCP on stressed wheat plants grown in pouches (drought stress); type: in vivo; details: 200 ppm in the pouch water at day 8; 5 days without watering at 26° C.; FIG. 1
Procedure: FIG. 1 illustrates wheat plants grown in pouches. On the right-hand side plants treated with 1-MCP and on the left-hand side non treated check plants.
10 mL of the mixture are added per pouch with a pipette.
20 to 25 Wheat kernels from the variety ARINA were sown in a plastic bag (pouch) with an absorbent paper, watered and grown under optimal conditions in a climate chamber for 8 days. At day 8 the 1-MCP in the form of an α-cyclodextrin molecularly encapsulated powder was applied at a 200 ppm rate to the water in the pouch. After application the plants were not watered anymore, but placed in a warm environment at 26° C. After 5 days without watering the differences of treated vs. untreated were evaluated visually (FIG. 1).

For `CC1=CC1` [1-MCP, 1-methylcyclopropene], the “Average change in angle of third petiole” value ([1]; 1 g ai/ha chemigation, Cerone applied 4 HAA 1-MCP) was 60, the “Average change in angle of third petiole” value ([1]; 1 g ai/ha chemigation, Cerone applied 24 HAA 1-MCP) was 78 and the “Average change in angle of third petiole” value ([1]; 10 g ai/ha chemigation, Cerone applied 4 HAA 1-MCP) was 20. The “Average change in angle of third petiole” value ([1]; 10 g ai/ha chemigation, Cerone applied 24 HAA 1-MCP) was 48, the “Average change in angle of third petiole” value ([1]; 20 g ai/ha chemigation, Cerone applied 4 HAA 1-MCP) was −9 and the “Average change in angle of third petiole” value ([1]; 20 g ai/ha chemigation, Cerone applied 24 HAA 1-MCP) was 41. For the same compound, the “Average change in angle of third petiole” value ([1]; >20 g ai/ha chemigation (incorrect pump calibration), Cerone applied 4 HAA 1-MCP) was −4, the “Average change in angle of third petiole” value ([1]; >20 g ai/ha chemigation (incorrect pump calibration), Cerone applied 24 HAA 1-MCP) was 18 and the water-solubility [2] was 137 mg I−1. The “Average change in angle of third petiole” value ([3]; 10 g ai/ha foliar spray, Cerone applied 4 HAA 1-MCP) was 71, the “Average change in angle of third petiole” value ([3]; 10 g ai/ha foliar spray, Cerone applied 24 HAA 1-MCP) was 82 and the “Average change in angle of third petiole” value ([3]; 20 g ai/ha foliar spray, Cerone applied 4 HAA 1-MCP) was 40. For the same compound, the “Average change in angle of third petiole” value ([3]; 20 g ai/ha foliar spray, Cerone applied 24 HAA 1-MCP) was 86 and the “drought tolerance of treated vs. untreated plants, evaluated visually” value [4] was “greater drought tolerance than control plants”.
